# From PubChem BioAssay AID2060898 (Molecular Pharmacology Branch, DTP, NCI, 2025)
# Test system: 616215-338-R-J1-PDC complex spheroid viability
# Test: Anticancer human tumor 616215-338-R-J1-PDC patient-derived colon adenocarcinoma cell line growth inhibition [RAS]
# Conditions: for IC50: curve of first compound; for viability, T/C: stronger effect = lower value
# How it was run: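 Agents were tested in combination matrices in half-log decrements from a top concentration at or near clinical Cmax (10 microM if undetermined). Targets were multi-cell spheroids of tumour lines plus HUVEC and MSC stromal cells.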
# 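Further: spheroids exposed to agents for seven days before viability readout.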
# 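Wherever viability, T/C is given: 100% = DMSO vehicle control viability.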
smiles,measurement,setting,value
Cc1nc(N2CCC3(CC2)COC(C)C3N)c(CO)nc1Sc1ccnc(N)c1Cl (configuration not stated) + CCn1c(-c2cc(N3CCN(C)CC3)cnc2C(C)OC)c2c3cc(ccc31)-c1csc(n1)CC(NC(=O)C1CC1C)C(=O)N1CCCC(N1)C(=O)OCC(C)(C)C2,IC50,second compound 0.000949 µM,> 10000 nM
same,IC50,second compound 0.003 µM,1670 nM
same,IC50,second compound 0.00949 µM,214 nM
same,IC50,second compound 0.03 µM,< 31.6 nM
same,IC50,second compound 0.0949 µM,< 31.6 nM
same,IC50,second compound 0.3 µM,< 31.6 nM
same,"viability, T/C","second compound 0.000949 µM, first compound 0.0316 µM",123%
same,"viability, T/C","second compound 0.000949 µM, first compound 0.1 µM",106%
same,"viability, T/C","second compound 0.000949 µM, first compound 0.316 µM",85.6%
same,"viability, T/C","second compound 0.000949 µM, first compound 1 µM",75.6%
same,"viability, T/C","second compound 0.000949 µM, first compound 3.16 µM",63.1%
same,"viability, T/C","second compound 0.000949 µM, first compound 10 µM",61.9%
same,"viability, T/C","second compound 0.003 µM, first compound 0.0316 µM",118%
same,"viability, T/C","second compound 0.003 µM, first compound 0.1 µM",92.5%
same,"viability, T/C","second compound 0.003 µM, first compound 0.316 µM",66.4%
same,"viability, T/C","second compound 0.003 µM, first compound 1 µM",49.7%
same,"viability, T/C","second compound 0.003 µM, first compound 3.16 µM",54.9%
same,"viability, T/C","second compound 0.003 µM, first compound 10 µM",39.1%
same,"viability, T/C","second compound 0.00949 µM, first compound 0.0316 µM",71%
same,"viability, T/C","second compound 0.00949 µM, first compound 0.1 µM",55.4%
same,"viability, T/C","second compound 0.00949 µM, first compound 0.316 µM",46.9%
same,"viability, T/C","second compound 0.00949 µM, first compound 1 µM",42.6%
same,"viability, T/C","second compound 0.00949 µM, first compound 3.16 µM",44.2%
same,"viability, T/C","second compound 0.00949 µM, first compound 10 µM",38%
same,"viability, T/C","second compound 0.03 µM, first compound 0.0316 µM",43.8%
same,"viability, T/C","second compound 0.03 µM, first compound 0.1 µM",47.5%
same,"viability, T/C","second compound 0.03 µM, first compound 0.316 µM",46.9%
same,"viability, T/C","second compound 0.03 µM, first compound 1 µM",39.9%
same,"viability, T/C","second compound 0.03 µM, first compound 3.16 µM",45.5%
same,"viability, T/C","second compound 0.03 µM, first compound 10 µM",36.6%
same,"viability, T/C","second compound 0.0949 µM, first compound 0.0316 µM",38.9%
same,"viability, T/C","second compound 0.0949 µM, first compound 0.1 µM",37.5%
same,"viability, T/C","second compound 0.0949 µM, first compound 0.316 µM",40.6%
same,"viability, T/C","second compound 0.0949 µM, first compound 1 µM",40.3%
same,"viability, T/C","second compound 0.0949 µM, first compound 3.16 µM",44.2%
same,"viability, T/C","second compound 0.0949 µM, first compound 10 µM",46.6%
same,"viability, T/C","second compound 0.3 µM, first compound 0.0316 µM",36.7%
same,"viability, T/C","second compound 0.3 µM, first compound 0.1 µM",40.9%
same,"viability, T/C","second compound 0.3 µM, first compound 0.316 µM",47.3%
same,"viability, T/C","second compound 0.3 µM, first compound 1 µM",39.1%
same,"viability, T/C","second compound 0.3 µM, first compound 3.16 µM",44.7%
same,"viability, T/C","second compound 0.3 µM, first compound 10 µM",37.1%
